Results published in paper PMC10648204, “Discovery of Novel Biphenyl Carboxylic Acid Derivatives as Potent URAT1 Inhibitors” (Molecules, 2023).

How the values were obtained:
[1] = system: URAT1; settings: general statement in the introduction; cited from earlier work
[2] = target: T1, human URAT1 (Homo sapiens, UniProt Q96S37); assay: In vitro URAT1 inhibitory assay (14C-uric acid uptake in HEK293T cells expressing human URAT1); type: cell-based; settings: HEK293-URAT1 cells, 14C-labeled uric acid substrate; for inhibition at 10 µM: HEK-293T, 10 μM compound, mean of three measurements
T1 construct: expressed in transfected cells; host or cells: HEK293T cells (ATCC CRL-11268)
T1 sequence (Q96S37 1-553): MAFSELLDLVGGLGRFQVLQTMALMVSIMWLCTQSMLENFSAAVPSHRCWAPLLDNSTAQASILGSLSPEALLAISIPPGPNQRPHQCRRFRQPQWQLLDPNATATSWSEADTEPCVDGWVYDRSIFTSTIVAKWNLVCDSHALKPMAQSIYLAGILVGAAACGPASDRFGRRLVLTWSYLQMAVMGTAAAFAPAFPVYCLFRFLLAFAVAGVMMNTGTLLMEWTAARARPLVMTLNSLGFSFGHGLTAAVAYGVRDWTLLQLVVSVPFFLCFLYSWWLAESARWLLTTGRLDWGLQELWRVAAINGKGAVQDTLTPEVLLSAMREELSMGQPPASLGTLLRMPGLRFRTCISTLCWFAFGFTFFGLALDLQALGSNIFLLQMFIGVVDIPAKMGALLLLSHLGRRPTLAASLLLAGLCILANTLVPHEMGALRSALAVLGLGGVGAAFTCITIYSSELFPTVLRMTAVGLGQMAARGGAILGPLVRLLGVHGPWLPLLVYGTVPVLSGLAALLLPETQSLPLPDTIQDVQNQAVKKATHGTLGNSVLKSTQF
Description: All the target compounds were evaluated for their URAT1 inhibitory activities in HEK293-URAT1 cells using ^14C-labeled uric acid as the substrate. […] The SAR exploration on series A compounds mainly focused on the hydrophobic component. […] For series B compounds, the ortho-substituted biphenyl carboxylic acid was initially kept, and various aromatic components were incorporated (B1–B25). […] Different substituents were introduced onto the 4-pyridyl (B15–B21).
In Vitro URAT1 Inhibitory Assay. A transient expression system of human URAT1 in HEK293T cells was constructed to measure ^14C-uric acid transport. […] The cell cryovials were removed from liquid nitrogen storage, and immediately placed on dry ice prior to thawing. […] The cell suspension was transferred into a 15 mL centrifuge tube, and 10 mL complete medium (DMEM +10% FBS +500 μg/mL G418 +1% P/S) was added. After centrifugation at 1000 rpm for 5 min, the supernatant was discarded, and cell precipitation was resuspended in 5 mL complete medium and transferred to a T75 culture flask. […] The uptake assay test could be carried out after cell culture adherent to the well in the 96-well plate. Then, the cells were washed with 200 µL/well of pre-warmed Cl^- free HBSS buffer, and all buffer was removed at the last washing. 50 µL/well of Cl^- free HBSS Buffer containing Uric acid [8-^14C] (2.5 μCi/mL) and samples were added to the cells, and incubated for 8 min. Then, the cells were washed three times with Cl^- free HBSS Buffer and all buffer was removed at the last washing. 50 µL/well of lysis buffer (100 mM NaOH) was added to the lysate cells and stirred at 900 rpm for 5 min. 150 µL/well MicroScint™-40 cocktail was added and agitated at 900 rpm for 5 min. Finally, the 96-plate was counted in a MicroBeta2 (PerkinElmer). The data were analyzed and IC50 values was calculated with GraphPad Prism 6 software.

SMILES | IC50 (URAT1 inhibitor potency level, in words) [1] | melting point | inhibition at 10 µM [2] | IC50 [2]
O=C(O)CSc1nnc(Br)n1-c1ccc(C2CC2)c2ccccc12 [Lesinurad] | micromolar level |  |  | 
O=C(O)c1ccccc1-c1ccccc1-c1nc(-c2ccc3ncccc3c2)no1 [Compound B24] |  | 264 to 266 °C | 67% | 
O=C(O)c1ccccc1-c1ccccc1C(=O)N1CCCc2ccc(-c3ccncc3)cc21 [Compound A13] |  | 266 to 268 °C | 86% | 1500 nM
O=C(O)c1ccccc1-c1cccc(C(=O)N2CCCc3ccccc32)c1 [Compound A21] |  | 100 to 102 °C | < 10% | 
O=C(O)c1ccccc1-c1ccccc1-c1nc(-c2cccnc2)no1 [Compound B13] |  | 210 to 212 °C | 64% | 
O=C(O)c1ccccc1-c1ccccc1-c1nc(-c2ccnc(Br)c2)no1 [Compound B15] |  | 165 to 168 °C | 97% | 250 nM
O=C(O)c1ccccc1-c1ccccc1-c1nc(-c2cccc(Br)c2)no1 [Compound B7] |  | 119 to 121 °C | 44% | 
O=C(O)c1ccccc1-c1ccccc1-c1nc(-c2ccccn2)no1 [Compound B12] |  | 190 to 193 °C | 27% | 
O=C(O)c1ccccc1-c1ccccc1C(=O)N1CCCc2ccc(Cl)cc21 [Compound A9] |  | 233 to 234 °C | 85% | 2200 nM
O=C(O)c1ccccc1-c1ccccc1C(=O)N1CCCc2c(Br)cccc21 [Compound A8] |  | 201 to 202 °C | 90% | 1600 nM
O=C(O)c1cccc(-c2ccccc2-c2nc(-c3ccncc3)no2)c1 [Compound B28] |  | 288 to 289 °C | 29% | 
O=C(O)c1ccccc1-c1ccccc1C(=O)Nc1ccnc2ccccc12 [Compound A19] |  | 176 to 178 °C | 24% | 
O=C(O)c1ccccc1-c1ccccc1-c1nc(-c2ccsc2)no1 [Compound B10] |  | 146 to 148 °C | 69% | 
O=C(O)c1ccc(-c2ccccc2-c2nc(-c3ccncc3)no2)cc1 [Compound B29] |  | 258 to 260 °C | 18% | 
O=C(O)c1ccccc1-c1ccccc1-c1nc(-c2ccncc2)no1 [Compound B14] |  | 188 to 191 °C | 88% | 1800 nM
O=C(O)CCNC(=O)c1ccccc1-c1ccccc1-c1nc(-c2ccncc2Cl)no1 [Compound B26] |  | 240 to 242 °C | 35% | 
O=C(O)c1ccccc1-c1ccccc1-c1nc(-c2ccco2)no1 [Compound B8] |  | 171 to 175 °C | 56% | 
Cc1cc(-c2noc(-c3ccccc3-c3ccccc3C(=O)O)n2)cc(C)n1 [Compound B20] |  | 214 to 216 °C | 76% | 3100 nM
Cc1cc(-c2noc(-c3ccccc3-c3ccccc3C(=O)O)n2)ccn1 [Compound B18] |  | 228 to 230 °C | 97% | 280 nM
Cc1ccc2c(c1)CCCN2C(=O)c1ccccc1-c1ccccc1C(=O)O [Compound A11] |  | 220 to 222 °C | 91% | 2100 nM
O=C(O)c1ccccc1-c1ccccc1-c1nc(-c2ccnc3ccccc23)no1 [Compound B22] |  | 258 to 259 °C | 89% | 1100 nM
O=C(O)c1ccccc1-c1ccccc1C(=O)N1CCc2ccccc21 [Compound A4] |  | 195 to 196 °C | 77% | 4700 nM
CCc1oc2ccccc2c1C(=O)c1cc(Br)c(O)c(Br)c1 [Benz, benzbromarone] | submicromolar level |  |  | 
O=C(O)c1ccccc1-c1ccccc1-c1nc(-c2ccc(Cl)cc2)no1 [Compound B3] |  | 154 to 156 °C | 55% | 
O=C(O)c1ccccc1-c1ccccc1C(=O)N1CCOc2ccccc21 [Compound A2] |  | 174 to 176 °C | 75% | 3900 nM
O=C(O)c1ccccc1-c1ccccc1-c1nc(-c2ccc(Br)cc2)no1 [Compound B4] |  | 148 to 150 °C | 61% | 
COc1ccc(-c2noc(-c3ccccc3-c3ccccc3C(=O)O)n2)c2ccccc12 [Compound B25] |  | 169 to 171 °C | 42% | 
O=C(O)c1ccccc1-c1ccccc1-c1nc(-c2ccc(F)cc2)no1 [Compound B1] |  | 150 to 153 °C | 56% | 
O=C(NS(=O)(=O)c1ccc(Br)cc1)c1ccccc1-c1ccccc1-c1nc(-c2ccncc2Cl)no1 [Compound B27] |  | 188 to 190 °C | 96% | 1300 nM
